Where a name gives a salt, the structure may show the parent alone.
Experiments:
Type in all cases: in vivo
[1] = system: mice; test: Rotarod test (neuro-muscular coordination), groups of 5 mice, 2 minute test periods for 5 hours after dosage
Text: (§1) In humans, this retention of coordination would avoid or reduce the disadvantages of loss of concentration and related side effects commonly associated with benzodiazepine drugs. The observation of this effect was made on groups of five mice subjected to a Rotarod test.

[2] = 7-day median lethal dose (LD50) in female mice; conditions: mouse, in vivo, 7-day
Text: (§2) The compounds in which R4 is furyl are of particular interest. Their psychotropic action is as disclosed above, but in addition their toxicity tends to be low. […] The higher toxicity at lower temperatures was thought to be caused by […] induced by the compound under test.

[3] = system: female mice; test: 7-day median lethal dose (LD50) in female mice
Text: as §2

[4] = diuretic activity at sedating dose; conditions: dose levels producing sedation (200 mg/Kg)
Text: At a clinical dose level it can therefore be assumed that there would be no diuretic effect.

[5] = system: mice; test: observation of sedation/tranquillization and hypnotic state in the mice of the Rotarod test
Text: as §1
*2/5 mice in hypnotic state - not returned to rotarod.

For CN(C)CCCN1c2ccccc2Sc2ccc(Cl)cc21 [Chlorpromazine, reference compound], the “Total Number of Falls” value ([1]; 15 mg./kg., 0 mins. after dosage, 5 mice) was 0, the “Total Number of Falls” value ([1]; 15 mg./kg., 15 mins. after dosage, 5 mice) was 1 and the “Total Number of Falls” value ([1]; 15 mg./kg., 30 mins. after dosage, 5 mice) was 0. For the same compound, the “Total Number of Falls” value ([1]; 15 mg./kg., 45 mins. after dosage, 5 mice) was 5, the “Total Number of Falls” value ([1]; 15 mg./kg., 60 mins. after dosage, 5 mice) was 13 and the “Total Number of Falls” value ([1]; 15 mg./kg., 90 mins. after dosage, 5 mice) was 17. For the same compound, the “Total Number of Falls” value ([1]; 15 mg./kg., 120 mins. after dosage, 5 mice) was 14, the “Total Number of Falls” value ([1]; 15 mg./kg., 180 mins. after dosage, 5 mice) was 9 and the “Total Number of Falls” value ([1]; 15 mg./kg., 240 mins. after dosage, 5 mice) was 13. For the same compound, the “Total Number of Falls” value ([1]; 15 mg./kg., 300 mins. after dosage, 5 mice) was 9.
With CN(C1=Nc2ccc(Cl)cc2C(c2ccccc2)=[N+]([O-])C1)C(O)c1ccco1 (stereo not shown) [SH60, 7-chloro-2-(N-methyl-N-1-hydroxyfurfurylamino)-5-phenyl-3H-1,4-benzodiazepine-4-oxide hydrochloride] the LD50 at 168 h ([2]; at 23° C) was 900 mg/kg, the LD50 at 168 h ([2]; at 30° C) was 1080 mg/kg and the “toxicity, indicated by the LD50, compared with conventional and commercially used benzodiazepine drugs” value [3] was “significantly lower than that of conventional and commercially used benzodiazepine drugs”. For the same compound, the diuretic activity [4] was “minimal diuretic activity”, the “Total Number of Falls” value ([1]; 20 mg./kg., 0 mins. after dosage, 5 mice) was 2 and the “Total Number of Falls” value ([1]; 20 mg./kg., 15 mins. after dosage, 5 mice) was 0. For the same compound, the “Total Number of Falls” value ([1]; 20 mg./kg., 30 mins. after dosage, 5 mice) was 0, the “Total Number of Falls” value ([1]; 20 mg./kg., 45 mins. after dosage, 5 mice) was 0 and the “Total Number of Falls” value ([1]; 20 mg./kg., 60 mins. after dosage, 5 mice) was 0. For the same compound, the “Total Number of Falls” value ([1]; 20 mg./kg., 90 mins. after dosage, 5 mice) was 0, the “Total Number of Falls” value ([1]; 20 mg./kg., 120 mins. after dosage, 5 mice) was 0 and the “Total Number of Falls” value ([1]; 20 mg./kg., 180 mins. after dosage, 5 mice) was 0. For the same compound, the “Total Number of Falls” value ([1]; 20 mg./kg., 240 mins. after dosage, 5 mice) was 0, the “Total Number of Falls” value ([1]; 20 mg./kg., 300 mins. after dosage, 5 mice) was 0 and the “Total Number of Falls” value ([1]; 100 mg./kg., 0 mins. after dosage, 5 mice) was 2. The “Total Number of Falls” value ([1]; 100 mg./kg., 15 mins. after dosage, 5 mice) was 0, the “Total Number of Falls” value ([1]; 100 mg./kg., 30 mins. after dosage, 5 mice) was 0 and the “Total Number of Falls” value ([1]; 100 mg./kg., 45 mins. after dosage, 5 mice) was 0. For the same compound, the “Total Number of Falls” value ([1]; 100 mg./kg., 60 mins. after dosage, 5 mice) was 0, the “Total Number of Falls” value ([1]; 100 mg./kg., 90 mins. after dosage, 5 mice) was 0 and the “Total Number of Falls” value ([1]; 100 mg./kg., 120 mins. after dosage, 5 mice) was 0. For the same compound, the “Total Number of Falls” value ([1]; 100 mg./kg., 180 mins. after dosage, 5 mice) was 0, the “Total Number of Falls” value ([1]; 100 mg./kg., 240 mins. after dosage, 5 mice) was 0 and the “Total Number of Falls” value ([1]; 100 mg./kg., 300 mins. after dosage, 5 mice) was 0. The “Total Number of Falls” value ([1]; 200 mg./kg., 0 mins. after dosage, 5 mice) was 0, the “Total Number of Falls” value ([1]; 200 mg./kg., 15 mins. after dosage, 5 mice) was 0 and the “Total Number of Falls” value ([1]; 200 mg./kg., 30 mins. after dosage, 5 mice) was 23. The “Total Number of Falls” value ([1]; 200 mg./kg., 45 mins. after dosage, 5 mice) was 27, the “Total Number of Falls” value ([1]; 200 mg./kg., 60 mins. after dosage, 5 mice) was 36 and the “Total Number of Falls” value ([1]; 200 mg./kg., 90 mins. after dosage, 5 mice) was 34. The “Total Number of Falls” value ([1]; 200 mg./kg., 120 mins. after dosage, 5 mice) was 40, the “Total Number of Falls” value ([1]; 200 mg./kg., 180 mins. after dosage, 2/5 mice in hypnotic state - not returned to rotarod) was ≥ 26 and the “Total Number of Falls” value ([1]; 200 mg./kg., 240 mins. after dosage, 2/5 mice in hypnotic state - not returned to rotarod) was ≥ 37. The “Total Number of Falls” value ([1]; 200 mg./kg., 300 mins. after dosage, 2/5 mice in hypnotic state - not returned to rotarod) was ≥ 30, the “effect on muscular coordination” value ([1]; mice, 20 mg/Kg) was “no apparent effect on muscular coordination” and the “effect on muscular coordination” value ([1]; mice, 100 mg/Kg) was “no apparent effect on muscular coordination”. For the same compound, the “difficulty in maintaining balance on the rotating rod” value ([1]; mice, 200 mg/Kg) was “all animals showed difficulty in maintaining balance on the rotating rod”, the neuro-muscular coordination ([1]; mice, dose levels producing tranquilizing and sedative effects) was “normal neuro-muscular coordination” and the “mice in hypnotic state - not returned to rotarod” value ([5]; 200 mg./kg., footnote to 180, 240 and 300 mins. after dosage) was 2/5. For the same compound, the sedation/tranquillization ([5]; mice, 20 mg/Kg) was “apparent sedation/tranquillization”, the sedation/tranquillization ([5]; mice, 100 mg/Kg) was “apparent sedation/tranquillization” and the sedation ([5]; mice, 200 mg/Kg, after 30 minutes) was “marked sedation”.
